From paper PMC12797170, “Potent Competitive Inhibitors of Ecto-5′-nucleotidase (CD73) based on 6‑(Het)aryl-7-deazapurine Ribonucleoside 5′‑O‑Bisphosphonates” (ACS Pharmacology & Translational Science, 2025)

Experiments:
[1] = biological target: T1, recombinant human CD73 (hCD73) (Homo sapiens, UniProt P21589); assay: CD73 activity assay on recombinant human CD73; assay type: biochemical; conditions: ΔGexp = RT ln Ki
T1 sequence (P21589 27-574): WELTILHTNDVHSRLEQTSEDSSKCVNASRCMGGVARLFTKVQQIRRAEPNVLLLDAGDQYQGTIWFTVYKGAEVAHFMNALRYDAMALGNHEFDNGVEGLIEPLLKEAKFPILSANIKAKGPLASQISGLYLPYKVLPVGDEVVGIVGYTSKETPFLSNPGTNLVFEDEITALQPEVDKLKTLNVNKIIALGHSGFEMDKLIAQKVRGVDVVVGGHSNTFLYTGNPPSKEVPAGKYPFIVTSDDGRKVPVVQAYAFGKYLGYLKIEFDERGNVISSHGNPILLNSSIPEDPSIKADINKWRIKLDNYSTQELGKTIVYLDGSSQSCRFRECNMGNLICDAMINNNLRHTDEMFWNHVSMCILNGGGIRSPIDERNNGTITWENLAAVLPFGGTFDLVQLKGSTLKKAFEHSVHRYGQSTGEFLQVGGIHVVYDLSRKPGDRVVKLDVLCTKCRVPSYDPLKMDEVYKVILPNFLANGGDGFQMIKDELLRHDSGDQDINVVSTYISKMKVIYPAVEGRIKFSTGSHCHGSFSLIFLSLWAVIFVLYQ

CYP1A2 = biological target: T2, CYP1A2 (Homo sapiens, UniProt P05177); assay: In vitro CYP450 inhibition assay (Vivid); assay type: biochemical; conditions: probe fluorogenic Vivid CYP450 substrate (not named)
T2 construct: assay run by Bienta (Enamine Biology Services)
T2 sequence (P05177 2-516 limits assumed): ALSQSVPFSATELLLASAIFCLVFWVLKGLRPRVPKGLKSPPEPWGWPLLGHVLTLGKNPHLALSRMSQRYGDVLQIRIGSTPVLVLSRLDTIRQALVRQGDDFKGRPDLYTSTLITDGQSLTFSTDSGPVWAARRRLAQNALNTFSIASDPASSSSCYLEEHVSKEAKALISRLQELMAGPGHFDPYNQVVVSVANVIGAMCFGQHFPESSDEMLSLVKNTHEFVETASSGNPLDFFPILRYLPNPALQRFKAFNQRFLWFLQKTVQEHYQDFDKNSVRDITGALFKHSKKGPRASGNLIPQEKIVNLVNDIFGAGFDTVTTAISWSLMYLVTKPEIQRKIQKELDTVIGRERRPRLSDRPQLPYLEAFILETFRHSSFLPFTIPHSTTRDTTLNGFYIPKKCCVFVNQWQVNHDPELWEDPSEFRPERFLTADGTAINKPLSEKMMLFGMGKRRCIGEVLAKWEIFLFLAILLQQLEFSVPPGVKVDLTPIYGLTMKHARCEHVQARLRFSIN
Description: (§1) The study was performed by Bienta (Enamine Biology Services). The potential for CYP450 inhibition (isoforms 1A2, 2C9, 2C19, 2D6, and 3A4) was assessed by performing in vitro inhibition studies using fluorogenic CYP450 substrates with the corresponding CYP450 enzymes and NADPH regeneration system (Vivid CYP450 Screening Kits) with some minor changes to the manufacturer’s protocols. The fluorescent signal produced from the reaction is directly proportional to the cytochrome P450 activity. In the cases when tested compounds interfere with the CYP450 enzyme–substrate reaction, the fluorescent signal decreases.
(§2) Briefly, the tested compounds were first dissolved in DMSO at 100× concentration (1 mM) and diluted in buffer to 2.5× concentration (25 μM). […] After 10 min of preincubation, the enzymatic reaction was initiated by the addition of a mix of NADPH and the appropriate CYP450 substrates. The plate was incubated for the desired reaction time (25 min for CYP1A2, CYP2C9, CYP2D6, and CYP3A4; 60 min for CYP2C19) after which Stop Reagent was added and fluorescence measured using SpectraMax Paradigm Multi-Mode Microplate Reader. All test points were performed in quadruplicates at a concentration of 10 μM (1% DMSO).

CYP2C19 = biological target: T3, CYP2C19 (Homo sapiens, UniProt P33261); assay: In vitro CYP450 inhibition assay (Vivid); assay type: biochemical; conditions: probe fluorogenic Vivid CYP450 substrate (not named)
T3 construct: assay run by Bienta (Enamine Biology Services)
T3 sequence (P33261 whole entry): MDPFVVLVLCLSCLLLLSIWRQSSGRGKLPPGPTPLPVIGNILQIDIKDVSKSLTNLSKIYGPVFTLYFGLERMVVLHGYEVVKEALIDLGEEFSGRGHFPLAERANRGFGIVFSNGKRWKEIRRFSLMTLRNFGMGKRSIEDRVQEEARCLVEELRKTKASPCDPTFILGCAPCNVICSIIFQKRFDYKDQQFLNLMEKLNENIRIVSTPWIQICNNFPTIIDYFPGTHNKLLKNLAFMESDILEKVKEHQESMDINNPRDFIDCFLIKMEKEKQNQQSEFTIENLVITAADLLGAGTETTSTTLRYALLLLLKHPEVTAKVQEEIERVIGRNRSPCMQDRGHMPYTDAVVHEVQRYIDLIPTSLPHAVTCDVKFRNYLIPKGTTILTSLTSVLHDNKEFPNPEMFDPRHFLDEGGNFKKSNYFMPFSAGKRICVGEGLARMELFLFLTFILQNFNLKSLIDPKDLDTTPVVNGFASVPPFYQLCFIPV
Description: as §1, §2

CYP2C9 = biological target: T4, CYP2C9 (Homo sapiens, UniProt P11712); assay: In vitro CYP450 inhibition assay (Vivid); assay type: biochemical; conditions: probe fluorogenic Vivid CYP450 substrate (not named)
T4 construct: assay run by Bienta (Enamine Biology Services)
T4 sequence (P11712 whole entry): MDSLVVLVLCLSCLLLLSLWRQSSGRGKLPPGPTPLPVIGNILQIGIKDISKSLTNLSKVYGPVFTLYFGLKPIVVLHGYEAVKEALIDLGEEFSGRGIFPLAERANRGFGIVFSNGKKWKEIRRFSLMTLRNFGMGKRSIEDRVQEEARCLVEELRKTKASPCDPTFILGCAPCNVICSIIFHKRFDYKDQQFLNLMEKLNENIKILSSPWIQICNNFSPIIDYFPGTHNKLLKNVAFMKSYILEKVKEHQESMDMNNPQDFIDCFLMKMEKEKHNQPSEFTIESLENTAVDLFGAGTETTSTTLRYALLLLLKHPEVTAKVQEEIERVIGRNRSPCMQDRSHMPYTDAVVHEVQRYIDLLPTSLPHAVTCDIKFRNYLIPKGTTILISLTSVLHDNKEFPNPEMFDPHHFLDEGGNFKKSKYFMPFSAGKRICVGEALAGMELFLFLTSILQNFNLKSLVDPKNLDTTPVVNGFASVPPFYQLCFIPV
Description: as §1, §2

CYP2D6 = biological target: T5, CYP2D6 (Homo sapiens, UniProt P10635); assay: In vitro CYP450 inhibition assay (Vivid); assay type: biochemical; conditions: probe fluorogenic Vivid CYP450 substrate (not named)
T5 construct: assay run by Bienta (Enamine Biology Services)
T5 sequence (P10635 whole entry): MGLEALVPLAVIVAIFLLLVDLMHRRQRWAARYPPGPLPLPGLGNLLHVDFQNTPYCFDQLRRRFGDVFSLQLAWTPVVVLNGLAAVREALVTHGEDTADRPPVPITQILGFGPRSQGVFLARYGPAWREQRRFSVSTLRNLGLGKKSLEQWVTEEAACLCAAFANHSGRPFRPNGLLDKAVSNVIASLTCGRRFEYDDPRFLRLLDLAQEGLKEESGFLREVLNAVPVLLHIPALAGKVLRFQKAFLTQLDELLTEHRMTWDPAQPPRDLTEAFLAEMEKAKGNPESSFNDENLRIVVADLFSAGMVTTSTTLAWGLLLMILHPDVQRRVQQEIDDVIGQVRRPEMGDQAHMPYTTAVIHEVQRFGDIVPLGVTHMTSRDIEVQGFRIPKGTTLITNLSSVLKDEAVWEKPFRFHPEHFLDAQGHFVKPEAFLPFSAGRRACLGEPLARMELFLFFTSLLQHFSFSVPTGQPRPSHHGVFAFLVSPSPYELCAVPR
Description: as §1, §2

CYP3A4 = biological target: T6, CYP3A4 (Homo sapiens, UniProt P08684); assay: In vitro CYP450 inhibition assay (Vivid); assay type: biochemical; conditions: probe fluorogenic Vivid CYP450 substrate (not named)
T6 construct: assay run by Bienta (Enamine Biology Services)
T6 sequence (P08684 2-503 limits assumed): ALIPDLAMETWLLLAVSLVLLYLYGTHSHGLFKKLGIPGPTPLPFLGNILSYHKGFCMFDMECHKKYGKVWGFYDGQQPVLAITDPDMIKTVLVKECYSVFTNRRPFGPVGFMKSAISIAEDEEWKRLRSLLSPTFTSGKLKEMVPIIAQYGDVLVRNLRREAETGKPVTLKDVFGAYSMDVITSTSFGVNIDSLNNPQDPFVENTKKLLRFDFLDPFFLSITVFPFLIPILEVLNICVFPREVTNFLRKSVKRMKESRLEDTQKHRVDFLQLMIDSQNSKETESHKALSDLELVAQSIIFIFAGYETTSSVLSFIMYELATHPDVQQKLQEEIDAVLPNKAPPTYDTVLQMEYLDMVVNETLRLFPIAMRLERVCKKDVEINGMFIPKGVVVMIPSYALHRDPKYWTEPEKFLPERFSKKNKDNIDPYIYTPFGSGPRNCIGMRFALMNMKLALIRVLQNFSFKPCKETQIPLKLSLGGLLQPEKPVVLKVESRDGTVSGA
Description: as §1, §2

hERG potassium channel = hERG potassium channel (Homo sapiens, UniProt Q12809); assay: hERG inhibition assay (thallium flux, HEK293-hERG cells); assay type: cell-based; conditions: for inhibition of hERG: at 100 μM
Sequence of hERG potassium channel (Q12809 whole entry): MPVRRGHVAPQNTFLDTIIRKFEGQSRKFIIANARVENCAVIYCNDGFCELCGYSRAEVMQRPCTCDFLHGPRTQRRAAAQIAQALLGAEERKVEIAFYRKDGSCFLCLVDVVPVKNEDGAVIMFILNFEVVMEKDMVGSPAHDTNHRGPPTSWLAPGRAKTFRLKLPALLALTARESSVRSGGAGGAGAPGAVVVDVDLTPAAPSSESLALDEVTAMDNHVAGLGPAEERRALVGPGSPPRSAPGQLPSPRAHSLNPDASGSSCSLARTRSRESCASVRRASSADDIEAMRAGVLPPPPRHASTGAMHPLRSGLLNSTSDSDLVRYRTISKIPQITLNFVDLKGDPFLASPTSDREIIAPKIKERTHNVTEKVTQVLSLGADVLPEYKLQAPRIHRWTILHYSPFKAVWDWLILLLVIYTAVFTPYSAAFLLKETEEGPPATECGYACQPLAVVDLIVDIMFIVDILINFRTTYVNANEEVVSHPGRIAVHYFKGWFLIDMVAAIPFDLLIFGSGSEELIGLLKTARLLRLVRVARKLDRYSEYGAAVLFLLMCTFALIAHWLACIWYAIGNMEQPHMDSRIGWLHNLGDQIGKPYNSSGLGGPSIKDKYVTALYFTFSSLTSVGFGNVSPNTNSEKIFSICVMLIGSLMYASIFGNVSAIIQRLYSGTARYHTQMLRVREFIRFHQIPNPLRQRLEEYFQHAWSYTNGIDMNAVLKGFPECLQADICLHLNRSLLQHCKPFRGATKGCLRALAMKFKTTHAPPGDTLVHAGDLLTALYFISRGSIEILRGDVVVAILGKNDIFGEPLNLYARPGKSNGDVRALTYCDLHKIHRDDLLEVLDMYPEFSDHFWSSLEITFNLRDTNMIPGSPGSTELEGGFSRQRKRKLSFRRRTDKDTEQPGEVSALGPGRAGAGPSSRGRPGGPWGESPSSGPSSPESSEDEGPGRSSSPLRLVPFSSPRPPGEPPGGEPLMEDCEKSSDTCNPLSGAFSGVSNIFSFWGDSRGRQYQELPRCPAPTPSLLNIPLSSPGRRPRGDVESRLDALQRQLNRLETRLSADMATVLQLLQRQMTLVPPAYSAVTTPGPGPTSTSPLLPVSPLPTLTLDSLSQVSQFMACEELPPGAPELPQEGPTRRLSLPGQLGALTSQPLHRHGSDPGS
Description: The study was performed by Bienta (Enamine Biology Services). HEK293-hERG cells (stably expressing human potassium channel hERG – human Ether-a-go-go Related Gene) were cultured in DMEM/F-12 medium supplemented with 10% FBS, 100 U/mL penicillin, 100 μg/mL streptomycin, and 500 μg/mL G418. The assay was performed according to the manufacturer’s instructions. Cells were seeded into a 384-well poly-D-lysine, clear-bottom microtiter plate (8000 cells/well) in DMEM/F-12 medium supplemented with 5% FBS, 100 U/mL penicillin, 100 μg/mL streptomycin 24 h prior to assay. After 24 h of cell growth, the conditioned medium was substituted with the Dye Loading Solution comprising thallium-sensitive dye, followed by incubation for 1 h in a CO2 incubator. After the incubation, the Dye Loading Solution was substituted with a 15 μL/well mixture of the Assay Buffer and the TRS. Then, 5 μL of the test compound diluted in the assay buffer (0.5% DMSO final concentration) was added to each well of the plate and incubated at room temperature for 30 min hERG inhibition by test compounds was assessed at 3 concentrations of 10–50–100 μM. All test points were performed in quadruplicates. […] DMSO was used as a negative control, and Haloperidol was used as a reference compound to verify the assay validity. Haloperidol was dissolved in 100% DMSO at a concentration of 20 mM and stored at – 20 °C (for no more than a month). Haloperidol was assessed at the final concentrations ranging from 0.023 μM to 50.0 μM (8 points, 3-fold serial dilutions). The test compounds were dissolved in 100% DMSO at a concentration of 20 mM.

[2] = test system: panel of CYP isoforms (1A2, 2C9, 2C19, 2D6, and 3A4); assay: CYP450 inhibition, panel statement; assay type: biochemical, human; conditions: up to 50 μM
Description: as §1, §2

Row | dG_exp, experimental binding free energy [1] | inhibition at 25 min, 10 µM (CYP1A2) [%] | inhibition at 60 min, 10 µM (CYP2C19) [%] | inhibition at 25 min, 10 µM (CYP2C9) [%] | inhibition at 25 min, 10 µM (CYP2D6) [%] | inhibition at 25 min, 10 µM (CYP3A4) [%] | inhibition of a panel of CYP isoforms [2] | SMILES | hERG % inhibition at 100 µM (hERG potassium channel) [%] | inhibition of hERG (hERG potassium channel)
1 | –14.1 kcal/mol | 7 | 3 | 11 | -10 | -3 | no inhibition | O=P(O)(O)CP(=O)(O)OC[C@H]1O[C@@H](n2ccc3c(-c4cccc5ccncc45)ncnc32)[C@H](O)[C@@H]1O [4A.18] | 6 | no inhibition
2 | –13.9 kcal/mol | 8 | -20 | 12 | -18 | 0 | no inhibition | Cc1nc(-c2cccc3ccccc23)c2ccn([C@@H]3O[C@H](COP(=O)(O)CP(=O)(O)O)[C@@H](O)[C@H]3O)c2n1 [18E.6] | 2 | no inhibition
3 | –15.9 kcal/mol | 0 | 10 | 15 | -13 | -8 | no inhibition | O=P(O)(O)CP(=O)(O)OC[C@H]1O[C@@H](n2ccc3c(-c4cccc5c4CCCC5)nc(Cl)nc32)[C@H](O)[C@@H]1O [7B.12] | 3 | no inhibition
4 | –16.3 kcal/mol | -17 | 3 | 21 | 6 | -23 | no inhibition | O=P(O)(O)CP(=O)(O)OC[C@H]1O[C@@H](n2ccc3c(-c4ccc5c(c4)CCCC5)nc(Cl)nc32)[C@H](O)[C@@H]1O [7B.23] | 5 | no inhibition
5 | –16.6 kcal/mol | 9 | 22 | 24 | -6 | 9 | no inhibition | O=P(O)(O)CP(=O)(O)OC[C@H]1O[C@@H](n2ccc3c(-c4ccc(F)c5ccccc45)nc(Cl)nc32)[C@H](O)[C@@H]1O [7B.28] | 6 | no inhibition
6 | –14.6 kcal/mol | – | – | – | – | – | – | Cc1nc(-c2ccc3ccccc3c2)c2ccn([C@@H]3O[C@H](COP(=O)(O)CP(=O)(O)O)[C@@H](O)[C@H]3O)c2n1 [18E.7] | – | –
7 | –13.4 kcal/mol | 7 | 10 | 23 | -17 | -7 | no inhibition | O=P(O)(O)CP(=O)(O)OC[C@H]1O[C@@H](n2ccc3c(-c4ccc5ccccc5c4)ncnc32)[C@H](O)[C@@H]1O [4A.7] | 1 | no inhibition
8 | –16.1 kcal/mol | -4 | -7 | 11 | -12 | -23 | no inhibition | O=P(O)(O)CP(=O)(O)OC[C@H]1O[C@@H](n2ccc3c(-c4ccc5c(c4)CCCC5)nc(I)nc32)[C@H](O)[C@@H]1O [27H.23, [(5-{[2-Iodo-4-(5,6,7,8-tetrahydronaphthalen-2-yl)-7H-pyrrolo[2,3-d]pyrimidin-7-yl]-β-D-ribofuranosyl}oxy)phosphonomethyl]phosphonic Acid] | 7 | no inhibition
